Measurements from PMC10465358 (Nature Microbiology, 2023).

Key:
[1] = molecular target: T1, P. bivia PulA (Prevotella bivia, UniProt I4Z8K5); test: BODIPY fluorescent starch amylase assay with purified enzyme; assay type: biochemical
T1 construct: gene PrebiDRAFT_0808
Text: BODIPY fluorescent starch amylase assay with purified enzyme on P. bivia PulA | Acarbose inhibited G. vaginalis PulA, P. bivia PulA and P. bivia GH13 enzymes

[2] = molecular target: T2, G. vaginalis PulA (Gardnerella vaginalis, UniProt A0ACD7VVB6); test: fluorescent (BODIPY) starch hydrolysis; assay type: biochemical; conditions: BODIPY starch substrate; 15 min preincubation; 37 °C; pH not stated; error is 95% confidence interval
T2 construct: gene GAVG_1021; signal peptide removed, N-terminal His6 (pET28a, pETpullGV), E. coli ArcticExpress (DE3), 219 kDa, two alpha-amylase (GH13) domains (D233, D1317)
T2 sequence (A0ACD7VVB6 34-2012): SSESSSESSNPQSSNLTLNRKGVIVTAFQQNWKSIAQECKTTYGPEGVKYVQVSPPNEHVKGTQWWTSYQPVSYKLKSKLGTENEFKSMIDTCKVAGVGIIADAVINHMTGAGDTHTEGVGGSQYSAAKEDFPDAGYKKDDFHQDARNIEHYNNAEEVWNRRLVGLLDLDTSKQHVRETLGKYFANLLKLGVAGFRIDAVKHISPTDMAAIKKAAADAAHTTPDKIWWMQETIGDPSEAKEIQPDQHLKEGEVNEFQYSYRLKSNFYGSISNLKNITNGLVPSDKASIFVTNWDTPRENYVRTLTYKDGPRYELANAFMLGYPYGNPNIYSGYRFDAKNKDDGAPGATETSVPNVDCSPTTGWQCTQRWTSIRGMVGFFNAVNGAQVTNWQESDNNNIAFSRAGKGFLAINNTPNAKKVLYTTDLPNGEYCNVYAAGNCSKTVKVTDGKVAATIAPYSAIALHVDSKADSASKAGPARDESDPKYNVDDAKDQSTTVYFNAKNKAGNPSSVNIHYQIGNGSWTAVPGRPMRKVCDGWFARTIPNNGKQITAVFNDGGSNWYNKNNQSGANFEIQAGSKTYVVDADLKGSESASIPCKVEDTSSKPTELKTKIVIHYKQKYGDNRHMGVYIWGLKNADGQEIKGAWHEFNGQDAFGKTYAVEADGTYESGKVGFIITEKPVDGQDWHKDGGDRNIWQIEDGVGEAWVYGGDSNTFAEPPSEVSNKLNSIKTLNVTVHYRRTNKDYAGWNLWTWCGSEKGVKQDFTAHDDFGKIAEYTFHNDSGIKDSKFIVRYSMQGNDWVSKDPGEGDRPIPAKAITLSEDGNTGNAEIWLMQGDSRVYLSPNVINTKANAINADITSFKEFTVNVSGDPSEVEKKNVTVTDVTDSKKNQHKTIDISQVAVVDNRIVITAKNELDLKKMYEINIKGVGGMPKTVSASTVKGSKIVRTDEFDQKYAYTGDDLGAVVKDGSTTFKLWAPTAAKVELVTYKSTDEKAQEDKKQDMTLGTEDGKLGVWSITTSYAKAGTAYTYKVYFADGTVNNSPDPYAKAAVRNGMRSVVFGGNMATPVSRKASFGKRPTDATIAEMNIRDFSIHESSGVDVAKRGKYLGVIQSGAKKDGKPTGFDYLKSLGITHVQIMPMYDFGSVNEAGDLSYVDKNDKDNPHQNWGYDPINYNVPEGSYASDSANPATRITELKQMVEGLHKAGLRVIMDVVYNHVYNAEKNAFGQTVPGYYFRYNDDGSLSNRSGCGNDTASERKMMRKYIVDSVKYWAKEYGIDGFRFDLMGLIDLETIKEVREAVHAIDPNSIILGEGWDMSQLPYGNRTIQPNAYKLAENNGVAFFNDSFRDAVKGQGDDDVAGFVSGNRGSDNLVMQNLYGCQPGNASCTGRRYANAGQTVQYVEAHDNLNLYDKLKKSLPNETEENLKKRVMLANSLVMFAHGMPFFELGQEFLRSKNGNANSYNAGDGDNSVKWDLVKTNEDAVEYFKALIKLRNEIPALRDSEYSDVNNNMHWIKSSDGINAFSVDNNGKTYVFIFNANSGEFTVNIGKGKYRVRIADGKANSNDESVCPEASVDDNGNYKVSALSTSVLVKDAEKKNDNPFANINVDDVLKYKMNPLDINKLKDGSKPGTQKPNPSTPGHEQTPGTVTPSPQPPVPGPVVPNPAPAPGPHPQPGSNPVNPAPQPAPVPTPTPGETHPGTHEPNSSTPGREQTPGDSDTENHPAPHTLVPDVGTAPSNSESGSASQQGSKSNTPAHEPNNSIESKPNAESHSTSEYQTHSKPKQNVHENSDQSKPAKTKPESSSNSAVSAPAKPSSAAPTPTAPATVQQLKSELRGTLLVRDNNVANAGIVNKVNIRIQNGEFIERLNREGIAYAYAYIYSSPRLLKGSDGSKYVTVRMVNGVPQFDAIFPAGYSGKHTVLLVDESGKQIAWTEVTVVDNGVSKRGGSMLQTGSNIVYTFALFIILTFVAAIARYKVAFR
Text: fluorescent (BODIPY) starch hydrolysis on G. vaginalis PulA | Acarbose inhibited G. vaginalis PulA, P. bivia PulA and P. bivia GH13 enzymes

T1 sequence (I4Z8K5 23-637 limits assumed): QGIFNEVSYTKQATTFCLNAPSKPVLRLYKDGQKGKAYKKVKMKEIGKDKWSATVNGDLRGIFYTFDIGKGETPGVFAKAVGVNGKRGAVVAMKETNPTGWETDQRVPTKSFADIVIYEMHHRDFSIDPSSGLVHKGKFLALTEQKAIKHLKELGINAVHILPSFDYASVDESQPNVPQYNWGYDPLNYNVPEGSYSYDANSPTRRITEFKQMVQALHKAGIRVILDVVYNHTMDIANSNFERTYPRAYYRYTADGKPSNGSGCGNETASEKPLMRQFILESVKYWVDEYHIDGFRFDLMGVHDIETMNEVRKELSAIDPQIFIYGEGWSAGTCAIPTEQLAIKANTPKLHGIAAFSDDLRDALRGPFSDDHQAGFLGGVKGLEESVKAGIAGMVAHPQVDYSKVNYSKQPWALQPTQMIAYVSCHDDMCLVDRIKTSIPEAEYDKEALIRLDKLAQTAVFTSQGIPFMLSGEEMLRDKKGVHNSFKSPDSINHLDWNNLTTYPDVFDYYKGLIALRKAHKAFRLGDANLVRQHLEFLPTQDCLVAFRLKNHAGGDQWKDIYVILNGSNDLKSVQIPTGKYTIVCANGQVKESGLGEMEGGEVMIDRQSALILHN

## C[C@H]1O[C@H](O[C@H]2[C@H](O)[C@@H](O)[C@@H](O[C@H]3[C@H](O)[C@@H](O)C(O)O[C@@H]3CO)O[C@@H]2CO)[C@H](O)[C@@H](O)[C@@H]1N[C@H]1C=C(CO)[C@@H](O)[C@H](O)[C@H]1O (some centres unmarked) [acarbose]
[1]
  IC50: 420 ± 90 µM
[2]
  IC50: 120 ± 30 µM
